This note sets out measurements from patent US20260216348A1, “IRAK DEGRADATION AGENT AND USE THEREOF” (Increland, priority 2023, published 2026).

For data set [1], the system named is R848-induced IL-6 secretion in human peripheral blood mononuclear cells (PBMCs). Kind of data set: Inhibition of R848-induced IL-6 secretion in human PBMCs (IL-6 ELISA). Format: cell-based. As to conditions: PBMC, R848 2.5 μg/mL, 20 h pre-incubation, 24 h stimulation. Here is the method:
This experiment was carried out in RPMI 1640 medium containing 10% FBS and 1% penicillin/streptomycin, with each of the compounds at an initial test concentration of 1 μM. The compound was dissolved in DMSO to prepare a stock solution, which was serially diluted into a series of working solutions with a 4-fold concentration gradient using the culture medium and then added to a 96-well plate at 10 μL per well. PBMCs (Batch No.: P122101102C; Milecell Biotechnology Inc.) were counted and diluted to a cell concentration of 1.25×10^6 cells/mL, and then added to the aforementioned compound-containing 96-well plate at 160 μL per well. The system was mixed well and incubated in a 5% CO2 incubator at 37° C. for 20 h. Then 10 μL of R848 (final concentration: 2.5 μg/mL) was added, and the culture was continued for 24 h in a 5% CO2 incubator at 37° C. After incubation, the 96-well plate was centrifuged at 2000 rpm for 4 min. The supernatant was collected and diluted 120-fold, then detected using an IL-6 ELISA kit. The OD450 values were read, and converted to IL-6 concentrations based on a standard curve.
Background: ELISA stands for enzyme-linked immunosorbent assay.

Data set [2] concerns LPS/IL-1β-induced IL-6 secretion in human peripheral blood mononuclear cells (PBMCs). As to the kind of experiment: Inhibition of LPS/IL-1β-induced IL-6 secretion in human PBMCs (IL-6 ELISA). Format: cell-based. To be noted: PBMC, LPS 10 ng/mL + IL-1β 20 ng/mL, 24 h pre-incubation, 20 h stimulation. In short, it runs like this:
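PBMCs preincubated 24 h at 37 °C with compounds (5-fold dilutions from 1 μM) in RPMI/10% FBS, then stimulated 20 h with LPS 10 ng/mL plus IL-1β 20 ng/mL (final). IL-6 in 200-fold diluted supernatant measured by ELISA at OD450 against a standard curve; IC50 from dose-response fitting.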

The target of the next data set is T1, IRAK4 (Homo sapiens, UniProt Q9NWZ3).
T1 construct: Effect of the Compounds on IRAK4 Protein Degradation in THP1 Cells; endogenous in cells; host or cells: THP-1 cells
T1 sequence (Q9NWZ3 1-460): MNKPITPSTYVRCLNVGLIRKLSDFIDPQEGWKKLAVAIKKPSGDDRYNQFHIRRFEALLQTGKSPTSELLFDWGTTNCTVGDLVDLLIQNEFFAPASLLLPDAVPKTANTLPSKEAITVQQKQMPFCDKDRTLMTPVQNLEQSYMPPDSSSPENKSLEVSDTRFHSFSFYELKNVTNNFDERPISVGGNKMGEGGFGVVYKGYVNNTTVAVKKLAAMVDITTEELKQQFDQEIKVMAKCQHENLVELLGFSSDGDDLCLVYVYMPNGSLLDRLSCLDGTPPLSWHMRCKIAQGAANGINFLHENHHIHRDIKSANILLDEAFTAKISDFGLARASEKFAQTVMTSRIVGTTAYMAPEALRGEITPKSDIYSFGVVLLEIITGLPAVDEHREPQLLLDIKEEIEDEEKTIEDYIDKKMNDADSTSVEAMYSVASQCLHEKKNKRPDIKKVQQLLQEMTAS
As to the kind of experiment: IRAK4 protein degradation in THP1 cells (Western blot). Type of data set: cell-based. To be noted: THP-1 cells, 24 h. The procedure, abridged: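 THP-1 cells (2×10^5/well) were treated with 5-fold serial compound dilutions for 24 h at 37 °C, then lysed with proteasome/phosphatase inhibitors. IRAK4 was detected by Western blot with chemiluminescence and semi-quantified by densitometry. DC50 came from the concentration–response.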
(In general: Immunoblotting shows a protein as a band on a membrane.)

The nature of data set [3]: Metabolic stability in human liver microsome. Type of data set: in vitro ADME. To be noted: NADPH, 60 min; for half-life at 1 µM: liver microsomes, read-out: Human liver microsome (t1/2, min). Here is the method:
Clean incubation plates T60 and NCF60 were preheated at 37° C. for 10 min. Liver microsomes were diluted to a concentration of 0.56 mg/mL with 100 mM phosphate buffer, and 445 μL of the microsome working solution (0.56 mg/mL) was transferred to the preheated incubation plates T60 and NCF60, followed by incubation of the plates T60 and NCF60 with continuous shaking at 37° C. for 10 min. After incubation, 54 μL of liver microsomes were transferred to a blank plate, 6 μL of NAPDH cofactor was added to the blank plate, and then 180 μL of quenching solution was added to the blank plate. 5 μL of the compound working solution (100 μM) was added to the microsome-containing incubation plates T60 and NCF60, and mixed thoroughly 3 times. For plate NCF60, 50 μL of buffer was added and the system was mixed thoroughly 3 times before timing was started, and the plate was incubated with shaking at 37° C. for 60 min. For the quenching plate, 180 μL of quenching solution and 6 μL of NADPH cofactor were added, and the plate was ensured to be cooled to prevent evaporation. For the T60 plate, the mixture was thoroughly mixed 3 times, and 54 μL of the mixture was immediately transferred to the quenching plate at the time point of 0 min. Then 44 μL of the NAPDH cofactor was added to the incubation plate (T60). Timing was started, and the plate was incubated with shaking at 37° C. for 60 min. At the time points of 5, 15, 30, 45, and 60 min, 180 μL of the quenching solution was added to the quenching plate respectively, mixed once, and 60 μL of sample was continuously transferred from the plate T60 to the quenching plate at each time point. For plate NCF60, after mixing once, 60 μL of the sample was transferred from incubation plate NCF60 to the quenching plate containing quenching solution at the 60-min time point. All sampling plates were shaken for 10 min, then centrifuged at 4000 rpm at 4° C. for 20 min. 80 μL of the supernatant was transferred to 240 μL of HPLC water, and mixed using a plate shaker for 10 min. Each bioanalytical plate was sealed and shaken for 10 min before LC-MS/MS analysis.
In general terms: Liver microsomes are a subcellular fraction often used to study metabolism.

Data set [4] concerns DSS-induced enteritis model. Kind of data set: DSS-induced enteritis (colitis) model. Type of data set: in vivo, mice. As to conditions: po, QD, Model 10.33 ± 1.11, Mean ± SD, n = 7. From the text:
The experimental mice were pre-acclimatized in the animal facility for one week; at the beginning of the experiment, the mice were given medication intragastrically daily according to their body weight. After the completion of intragastric administration in each group, mice had direct access to water bottles for free drinking. The blank group received normal water, while the other groups received pre-prepared DSS water. Each afternoon, the mice's abdomens were massaged to stimulate defecation, and one fecal pellet was collected onto a white porcelain plate. Fecal consistency was judged and recorded according to Table 30. The fecal occult blood qualitative test kit (Yuanye Biotechnology, #R24187-300T) was used to test for occult blood in feces and the results were interpreted according to Table 31.

Data set [5] relates to CIA-induced rheumatoid arthritis model. As to the kind of experiment: CIA-induced rheumatoid arthritis model. Type of data set: in vivo, DBA/1J mice. To be noted: 30 mg/kg, BID; Model 12.31 ± 2.97; Mean ± SD, n = 7. The protocol: 1. DBA/1J mice, male, SPF grade, were pre-acclimatized in the animal facility for one week. 2. On day 1, for the primary immunization, 2 mg/mL bovine type II collagen was mixed thoroughly with an equal volume of complete Freund's adjuvant on ice using a homogenizer until fully emulsified. 100 μL of the collagen emulsion (final concentration 1 mg/mL) was intradermally injected at 2 cm from the base of the mouse tail. Medical iodophor was used to disinfect the tail after injection to prevent tail necrosis, which was conducted for 3 consecutive days. 3. On day 21, bovine type II collagen solution was thoroughly mixed and emulsified with an equal volume of Freund's incomplete adjuvant, using the same method as the primary immunization. 4. On day 26, LPS was administered intraperitoneally at a dose of 50 μg/animal to induce disease. 5. On day 28, the affected mice were scored according to Table 33 and the diameter of their ankle joints was measured. Mice were randomly grouped and treated with medication based on their scores and ankle diameter.

As a reminder, the IC50 is the point on the concentration scale where inhibition reaches its midpoint. The term DC50 denotes the concentration giving 50% degradation.

For the molecule `CN(C)c1cc2nn([C@H]3CC[C@H](CN4CCC(n5cc6cc(N7CCC(=O)NC7=O)ccc6n5)CC4)CC3)cc2cc1NC(=O)c1cnn2cccnc12` [TM-3], the IC50 in data set [1] stood at 3.53 nM; in data set [2] it was 0.39 nM. The molecule also yielded a DC50 on IRAK4 of 2.76 nM. Further, the “Human liver microsome (t1/2, min)” value in data set [3] was 145 min.
In the case of `CN(C)c1cc2nn([C@H]3CC[C@H](CN4CCC(n5cc6cc(F)c(C7CCC(=O)NC7=O)cc6n5)CC4)CC3)cc2cc1NC(=O)c1cnn2cccnc12` (some centres unmarked) [TM-6], the half-inhibitory concentration (IC50) in data set [2] worked out at 1.15 nM. For the same molecule, it took 0.7 nM to reach half-maximal degradation on IRAK4 (DC50). For the same molecule, in data set [3], the half-life at 1 µM was determined as 124 min.
For `CN(C)c1cc2nn(C3CCN(C[C@H]4CC[C@H](n5cc6cc(C7CCC(=O)NC7=O)c(F)cc6n5)CC4)CC3)cc2cc1NC(=O)c1cnn2cccnc12` (some centres unmarked) [TM-8], the IC50 in data set [2] amounted to 0.84 nM. At IRAK4, this molecule came in with a 50% degradation concentration (DC50) of 3.58 nM. In addition, the “Human liver microsome (t1/2, min)” value in data set [3] was 145 min.
As for `CN(C)c1cc2nn([C@H]3CC[C@H](CN4CC[C@H](n5cc6cc(C7CCC(=O)NC7=O)c(F)cc6n5)[C@H](F)C4)CC3)cc2cc1NC(=O)c1cnn2cccnc12` (some centres unmarked) [TM-132], the IC50 in data set [1] turned out to be 7.83 nM; in data set [2], 3.52 nM. In addition, the DC50 on IRAK4 was found to be 0.31 nM. For the same molecule, the half-life at 1 µM in data set [3] amounted to 93.1 min.
For `CN(C)c1cc2nn([C@H]3CC[C@H](CN4CC[C@@H](n5cc6cc(C7CCC(=O)NC7=O)c(F)cc6n5)[C@H](F)C4)CC3)cc2cc1NC(=O)c1cnn2cccnc12` (some centres unmarked) [TM-133], the IC50 in data set [2] worked out at 3.55 nM. The same molecule registered a DC50 on IRAK4 of 1.6 nM. The half-life at 1 µM in data set [3] worked out at 107 min.
In the same order, the values of `CN(C)c1cc2nn([C@H]3CC[C@H](CN4CC[C@H](n5cc6cc(C7CCC(=O)NC7=O)c(F)cc6n5)[C@@H](F)C4)CC3)cc2cc1NC(=O)c1cnn2cccnc12` (some centres unmarked) [TM-134] are 2.59 nM, 3 nM and 114 min.
Take `CN(C)c1cc2nn([C@H]3CC[C@H](CN4CC[C@H](n5cc6cc(F)c(C7CCC(=O)NC7=O)cc6n5)[C@H](F)C4)CC3)cc2cc1NC(=O)c1cnn2cccnc12` (some centres unmarked) [TM-136]: in data set [2], the IC50 stood at 6.63 nM. It took 1.71 nM to reach half-maximal degradation on IRAK4 (DC50). Further, the half-life at 1 µM in data set [3] came to 101 min.
As to `CN(C)c1cc2nn([C@H]3CC[C@H](CN4CC[C@@H](n5cc6cc(F)c(C7CCC(=O)NC7=O)cc6n5)[C@H](F)C4)CC3)cc2cc1NC(=O)c1cnn2cccnc12` (some centres unmarked) [TM-137], in data set [2], the IC50 turned out to be 2.4 nM. In addition, the DC50 at IRAK4 is 9.41 nM. In addition, the half-life at 1 µM in data set [3] was 92.3 min.
For `CN(C)c1cc2nn([C@H]3CC[C@H](CN4CC[C@H](n5cc6cc(F)c(C7CCC(=O)NC7=O)cc6n5)[C@@H](F)C4)CC3)cc2cc1NC(=O)c1cnn2cccnc12` (some centres unmarked) [TM-138], the IC50 in data set [2] is 6.96 nM. In addition, in data set [3], the half-life at 1 µM was 91 min.
As to `CN(C)c1cc2nn([C@H]3CC[C@H](CN4CC[C@@H](n5cc6ccc(C7CCC(=O)NC7=O)cc6n5)[C@H](F)C4)CC3)cc2cc1NC(=O)c1cnn2cccnc12` (some centres unmarked) [TM-152], the IC50 in data set [2] is 9.43 nM. The molecule also came in with a DC50 on IRAK4 of 1.09 nM. In data set [3], the half-life at 1 µM was determined as 104 min.
For `CN(C)c1cc2nn([C@H]3CC[C@H](CN4C[C@@H](F)[C@H](n5cc6c(F)cc(N7CCC(=O)NC7=O)cc6n5)C4)CC3)cc2cc1NC(=O)c1cnn2cccnc12` [TM-221], the figures for the IC50 in data set [1] and in data set [2] were 7.1 nM and 1.88 nM, respectively. At IRAK4, this molecule had a DC50 of 8.45 nM. Moreover, the “DAI Score d 8” value in data set [4] (3 mpk) is 4.43 ± 1.68; in data set [4] (10 mpk), 3.00 ± 1.07; in data set [4] (30 mpk), 2.57 ± 2.50.
For `CN(C)c1cc2nn([C@H]3CC[C@H](CN4CCC(n5cc6c(F)cc(C7CCC(=O)NC7=O)cc6n5)CC4)CC3)cc2cc1NC(=O)c1cnn2cccnc12` (some centres unmarked) [TM-233], the IC50 in data set [1] came out at 3.34 nM; in data set [2] it was 0.83 nM. Further, in data set [3], the half-life at 1 µM stood at 138 min.
In the case of `C[C@@H]1CCN(C(=O)CC#N)C[C@@H]1N(C)c1ncnc2[nH]ccc12` [tofacitinib, Tofacitinib, reference compound], the “DAI Score d 42” value in data set [5] is reported as 10.67 ± 3.13.
